Consider four compounds from article PMC12560828, “Chemical structure drives developmental toxicity of alkyl-substituted naphthalenes in zebrafish” (Environment international, 2025).

The test system of data set [1] is early life stage zebrafish (Danio rerio) embryos. The experiment in a line: Developmental toxicity morphology screen, sealed rotating vial exposure. The format is in vivo. On the set-up: bmd, MO24 / bmd, MORT / bmd, ANY_ / bmd, AXIS / bmd, CRAN / bmd, EDEM / bmd, LTRK / bmd, MUSC / bmdL, ANY_ / bmdU, ANY_ / bmdL, AXIS / bmdU, AXIS / bmdL, CRAN / bmdU, CRAN / bmdL, EDEM / bmdU, EDEM / bmdL, LTRK / bmdU, LTRK / bmdL, MO24 / bmdU, MO24 / bmdL, MORT / bmdU, MORT: unit not given here. The settings on record: for morphological effects (BMC50 for any morphological endpoint): 0-50 μM, result in words. Put shortly:
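Bleached 6 hpf embryos, eight per sealed glass vial in 2 mL EM, were dosed from a 200x DMSO stock and rotated end-over-end overnight at 28 °C, then moved to chemical-free EM at 24 hpf (32 embryos per treatment). Blinded binary scoring at 120 hpf was pooled as "Any effect". BMC50 is on nominal concentrations.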

Data set [2] concerns zebrafish embryos. As to conditions: 96-well, cited from earlier work.
Data set [3] can be described thus: Body burden measurement (GC-MS/MS) and concentration uptake ratio, vial exposure. The format is in vivo, Danio rerio. As to conditions: zebrafish (Danio rerio), whole embryos (32 pooled, ethyl acetate extract), other: waterborne exposure of embryos in sealed vials, 20 μM exposure, 32 pooled embryos, 0.5 mL extract, single replicates, read-out: measured concentration in embryo extract. The procedure: (§1) Body burden was measured for exposure to five chemicals at two timepoints: 24 and 48 hpf. […] The exposure concentration was chosen as it was the maximum possible concentration that ensured enough viable animals for collection at 48 hpf and allowed direct comparison of chemical uptake at the same exposure concentration.
(§2) Chemicals were exposed at 20 μM following the exposure procedure detailed in section 1.3, 24 vials per chemical. At 24 hpf, embryos were pooled in groups of 32 embryos (combining embryos from 4 vials) into 1.5 mL polypropylene RINO-safe lock tubes (n = 3 per chemical treatment, n = 3 per control). Tubes were briefly placed on ice to reduce embryo movement (<1 min); the remaining medium was removed; the tube was then flash frozen in liquid nitrogen and stored at −20 °C until extraction. Embryos in the remaining vials were plated as previously described in section 1.3 until collection at 48 hpf following the same procedure as 24 hpf collections (n = 3 per chemical treatment, n = 1 control).
(§3) Tissue extraction was performed as previously reported ([Rude et al., 2025]). Each sample was spiked with 25 μL internal standard in ethyl acetate and 100 μL of 1 mm glass beads (Next Advance, Troy, NY United States) were added to the RINO-safe lock tubes containing thawed tissue samples and left on ice for 10 min 250 mg of Na2SO4 and 200 μL of ethyl acetate were added to each tube and vortexed. Tubes were homogenized at speed 8 for 6 min in a Bullet Blender (Next Advance, Troy, NY, United States). 300 μL of ethyl acetate was added to each tube and the homogenization step was repeated until no pieces of non-homogenized fish tissue remained. Samples were then centrifuged for 10 min at 4 °C, 1600g. Sample supernatant (0.5 mL) was collected into amber vials and stored at 4 °C until chemical analysis.
(§4) Samples were analyzed for quantitation and identification of 161 PAHs. The method was performed with an Agilent 7890 gas chromatograph (GC), with a 7000C triple quadrupole mass spectrometer (MS/MS) using an Agilent J&W PAH select (30 m × 250 μm × 0.15 μm GC column). Calibration for each analyte utilized at least a 4-point (range: 4–7, median 6 points, n = 161) curve with R^2 ≥ 0.99. Specific instrument conditions were modified from [Anderson et al. (2015)] and are detailed in Table S3. GC–MS/MS data was analyzed using MassHunter Quantitative Analysis v.B.06.00 SP1 build 6.0.388.1 software (Agilent Corp. Wilmington,DE) ([Anderson et al., 2015]). Dynamic muti-reaction monitoring mode was used during analyses, and all PAHs were identified using analytical standards obtained from multiple sources (Table S1). Collison energies were optimized for each individual unsubstituted PAH, alkylation series (C1, C2, etc.), and when possible, specific alkylation group (i.e. methyl, ethyl, etc.).
(§5) Body burden concentrations based on average embryo wet weight at each timepoint were determined by the equation below. Total measured chemical was calculated from ng/mL concentrations times sample volume (0.5 mL). Bodyburdennmol/mgbw=total measured chemicalnmol/number of fish32×average body weightmg
(§6) Average body weights at 24 hpf and 48 hpf were assumed to be 0.31 mg and 0.26 mg, respectively as determined previously ([Rericha et al., 2024]). Statistical analysis to compare time points within chemicals was performed using a two-sided Student’s t-test (p-value ≤ 0.05). An ANOVA with a follow-up Dunn’s test was used to compare body burden between chemicals at 24 hpf (p-value ≤ 0.05). Body burden concentrations at 24 hpf were compared to the estimated percent effect of each measured chemical at the exposure concentration used for body burden analysis (20 μM). These estimates were made using the fitted concentration-response curves previously described in section 2.3.2.2.
(§7) Concentration uptake ratios between vial exposures and 96-well plate exposures were compared using a two-sided Student’s t-test, p-values ≤ 0.05 were considered significant. […]

Data set [4] has as its system zebrafish embryos. Described as above. The format is in vivo, Danio rerio. The settings on record: for measured concentration in embryo extract: 20 μM exposure, 32 pooled embryos, 0.5 mL extract, single replicates; for nmol/embryo per nmol available / nmol/embryo: Current study, vial, 20 μM; for nmol/embryo: single chemical. The procedure: as §1, §2, §3, §4, §5, §6, §7

The test system of data set [5] is zebrafish larvae, 120 hpf. The experiment in a line: Larval photomotor response (LPR) assay after vial exposure. It counts as in vivo, Danio rerio. As to conditions: LPR. The procedure, abridged:
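Embryos bleached at 6 hpf, exposed in sealed glass vials (8 per vial, DMSO stock at 200x) with rotation overnight at 28 °C, then singulated into chemical-free medium and kept dark at 28 °C. Movement tracked minutes 6–24 at 120 hpf, 6 s bins log-normalized to AUC; LEL per light/dark period from first cycle; nominal water concentrations, dead/malformed larvae excluded.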

The test system of data set [6] is early life stage zebrafish. Set-up: method as in Geier et al., 2018a. As to conditions: 96-well plate format; ref Geier et al., 2018a; cited from earlier work.
Data set [7] concerns lung tissue. The settings on record: compared to naphthalene and monomethylated derivatives, ref Honda et al., 1990, cited from earlier work.
[8] abbreviates: 24 hpf, 2.6 μM, mixture, ref Rude et al 2025.
Where [9] appears, read: 48 hpf, 2.6 μM, mixture, ref Rude et al 2025.
The mark [10] stands for this setting: period dark, round 1, conc 3.125.
Where [11] appears, read: period dark, round 1, conc 6.25.
[12] abbreviates: period dark, round 1, conc 12.5.
Setting [13] is: period light, round 1, conc 3.125.
The mark [14] stands for this setting: period light, round 1, conc 6.25.
The mark [15] stands for this setting: period light, round 1, conc 12.5.

Where “and” joins values, the source holds several entries; their conditions need not be identical. Equal entries are not always repeated. Where two headings read alike, the source gives them in different places.

Take `c1ccc2ccccc2c1` [naphthalene]: the “morphological effects (BMC50 for any morphological endpoint)” value in data set [1] was “no morphological BMC50 values”. In addition, the “mean nmol/embryo per nmol available” value in data set [2] (setting [8]) is listed as 0.004595. Also, the nmol/embryo in data set [2] (setting [8]) was 0.001159 nmol/embryo and 0.001224 nmol/embryo and 0.001235 nmol/embryo; in data set [2] (setting [9]), 0.0007856 nmol/embryo and 0.00092 nmol/embryo and 0.0008366 nmol/embryo and 0.0008192 nmol/embryo; in data set [2] (48 hpf, 5.39 μM, single chemical, ref Geier et al 2018), 0.0007734 nmol/embryo and 0.0007422 nmol/embryo and 0.000789 nmol/embryo; in data set [2] (48 hpf, 11.6 μM, single chemical, ref Geier et al 2018), 0.001794 nmol/embryo and 0.001746 nmol/embryo and 0.001648 nmol/embryo; in data set [2] (48 hpf, 25 μM, single chemical, ref Geier et al 2018), 0.002233 nmol/embryo and 0.002584 nmol/embryo and 0.002516 nmol/embryo; in data set [4] (24 hpf) it was 0.7924 nmol/embryo and 0.5364 nmol/embryo and 0.6254 nmol/embryo. The nmol/embryo in data set [4] (48 hpf) was 0.009216 nmol/embryo and 0.008156 nmol/embryo and 0.007558 nmol/embryo. The “nmol/embryo per nmol available” value in data set [2] (setting [8]) was 0.00446 and 0.00471 and 0.004751; in data set [2] (setting [9]), 0.003022 and 0.003538 and 0.003218 and 0.003151; in data set [2] (48 hpf, 5.39 μM, ref Geier et al 2018), 0.001435 and 0.001377 and 0.001464; in data set [2] (48 hpf, 11.6 μM, ref Geier et al 2018), 0.001547 and 0.001505 and 0.001421; in data set [2] (48 hpf, 25 μM, ref Geier et al 2018), 0.0008933 and 0.001034 and 0.001006; in data set [4] (24 hpf), 0.1585 and 0.1073 and 0.1251. Further, in data set [4] (48 hpf), the “nmol/embryo per nmol available” value is 0.001843 and 0.001631 and 0.001512. The concentration at 24 hpf, 20 μM in data set [3] (24 hpf) came out at 6500 ng/mL. In addition, in data set [3] (48 hpf), the concentration at 48 hpf, 20 μM amounted to 75.6 ng/mL. Besides, the “measured concentration in embryo extract” value in data set [4] (24 hpf) was 4400 ng/mL and 5130 ng/mL; in data set [4] (48 hpf), 66.9 ng/mL and 62 ng/mL.

In the case of `Cc1ccc2cc(C)ccc2c1` [2,6-dimethylnaphthalene], the fold_change is on record as -0.2769 in data set [5] (setting [10]); -0.4387 in data set [5] (setting [11]); -0.1031 in data set [5] (setting [12]); -0.6771 in data set [5] (period dark, round 1, conc 25); -0.3061 in data set [5] (period dark, round 1, conc 50); -0.2359 in data set [5] (setting [13]). Also, the fold_change is recorded as -0.1972 in data set [5] (setting [14]); 0.2009 in data set [5] (setting [15]); -0.2222 in data set [5] (period light, round 1, conc 25); -0.2493 in data set [5] (period light, round 1, conc 50). Moreover, the LPR effects result in data set [6] was “all but 2,6-dimethylnaphthalene caused LPR effects”.

`CC(C)c1ccc2cc(C(C)C)ccc2c1` [2,6-diisopropylnaphthalene]: the “morphological effects (BMC50 for any morphological endpoint)” value in data set [1] is reported as “lack of activity”. Moreover, the fold_change is reported as -0.1214 in data set [5] (setting [10]); 0.07359 in data set [5] (setting [11]); -0.001373 in data set [5] (setting [12]); -0.09025 in data set [5] (period dark, round 1, conc 25); -0.07941 in data set [5] (period dark, round 1, conc 50); -0.5097 in data set [5] (setting [13]). The fold_change is recorded as -1.08 in data set [5] (setting [14]); -0.05494 in data set [5] (setting [15]); -0.2588 in data set [5] (period light, round 1, conc 25); -0.8125 in data set [5] (period light, round 1, conc 50). Also, the “toxicity / lung tissue damage in mice” value in data set [7] is “minimal damage to lung tissue”; in data set [7] (listed as 2,6-diidopropylnaphthalene), “minimally active”.

In the case of `CC(C)c1ccc2ccccc2c1` [2-isopropylnaphthalene], the “BMC50 MO24 (mortality at 24 hpf)” value in data set [1] (Fig. 2, nominal concentration) is 29.9 µM. For the same compound, the “BMC50 MORT (mortality at 120 hpf)” value in data set [1] (Fig. 2, nominal concentration) amounted to 25.2 µM. Further, the “BMC50 Any effect” value in data set [1] (Fig. 2 heatmap, nominal concentration, exposure 6-24 hpf in vials, summary of all endpoints) turned out to be 19.8 µM. Further, the “any effect BMD50” value in data set [1] (SI-T5) amounted to 19.85 µM. The “bmd, MO24” value in data set [1] (endpoint MO24, benchmark dose) is 29.9264. Further, the “bmdL, MO24” value in data set [1] (endpoint MO24, lower limit of benchmark dose) is listed as 27.6751. Besides, the “bmdU, MO24” value in data set [1] (endpoint MO24, upper limit of benchmark dose) is reported as 32.9501. For the same compound, the “bmd, MORT” value in data set [1] (endpoint MORT, benchmark dose) was determined as 25.1507. Also, in data set [1] (endpoint MORT, lower limit of benchmark dose), the “bmdL, MORT” value was determined as 24.3232. Besides, the “bmdU, MORT” value in data set [1] (endpoint MORT, upper limit of benchmark dose) stood at 26.3204. For the same compound, in data set [1] (morphology endpoint ANY_, benchmark dose), the “bmd, ANY_” value is 19.8483. Besides, the “bmdL, ANY_” value in data set [1] (morphology endpoint ANY_, lower limit of benchmark dose) worked out at 18.4734. Moreover, the “bmdU, ANY_” value in data set [1] (morphology endpoint ANY_, upper limit of benchmark dose) came to 21.3892. The fold_change in data set [5] (setting [10]) is recorded as -0.04413; in data set [5] (setting [11]), -0.6849; in data set [5] (setting [12]), -1.554; in data set [5] (period dark, round 2, conc 12.8) it was -0.9379; in data set [5] (period dark, round 2, conc 16), -1.368; in data set [5] (period dark, round 2, conc 20), -1.899. The fold_change in data set [5] (setting [13]) was 0.2872; in data set [5] (setting [14]), 0.3099; in data set [5] (setting [15]), 1.277; in data set [5] (period light, round 2, conc 12.8), -0.1327; in data set [5] (period light, round 2, conc 16) it was -0.2493; in data set [5] (period light, round 2, conc 20) it was 0.1913. Also, the “toxicity / lung tissue damage in mice” value in data set [7] is given as “minimally active”.
